Experimental data published in US12723023B2, “Ionizable cationic lipids for RNA delivery” (Arcturus Therapeutics, Inc., priority 2021, dated 2026).

Legend:
[1] = In vivo biodegradability assay (lipid concentration in mouse liver by LC-MS); set-up: species or system mice; conditions: BLOQ: below level of quantification; for In vivo degradability (ng/tissue) at 48 h 0.1 mpk: Table 2, 0.1 mpk; for In vivo degradability (ng tissue) at 48 h 0.1 mpk: Table 1, 0.1 mpk
Description: In vivo biodegradability assay was performed to assess the biodegradability of lipids in the LNP. Briefly, mice were injected with either 0.1 or 0.03 mg/Kg dose and after 24 or 48 hours mice livers were collected. To measure the concentration of lipids in the mouse liver, liver samples were homogenized in appropriate buffer in 1-10 dilution and mixed with the same amount of stabilized plasma. The samples were then mixed with organic solvents spiked with internal standard to precipitate proteins. After centrifugation, supernatant was diluted further with organic solvent before sample analysis by LC-MS. In LC-MS analysis, positive electrospray ionization was used, and multiple reaction monitoring (MRM) parameters were set up to specifically target the lipid analyte and internal standard. Calibration standards were prepared in stabilized plasma and mixed with same amount of homogenization buffer before protein precipitation. Quality control samples with known amounts of lipid was prepared in blank liver homogenate to monitor the precision and accuracy of the assay.

Mouse plasma stability = type: in vitro ADME, CD-1 mouse; conditions: 1 μM lipid
Description: Lipid stock solution was prepared by dissolution of the lipid in isopropanol at the concentration of 5 mg/mL. A requisite volume of the lipid-isopropanol solution was then diluted to 100 μM concentration at a total volume of 1.0 mL with in 50:50 (v/v) ethanol/water. Ten microliters of this 100 μM solution was spiked into 1.0 mL of mouse plasma (BioIVT, Cat. No.: MSE00PLNHUNN, CD-1 mouse, anticoagulant: sodium heparin, not filtered) that was pre-warmed to 37° C. and was stirred at 50 rpm with a magnetic stir bar. The starting concentration of lipids in plasma was thus 1 μM. At time points 0, 15, 30, 45, 60 and 120 min, 0.1 mL of the plasma was withdrawn from the reaction mixture and the protein was precipitated by adding 0.9 mL of ice-cold 4:1 (v/v) acetonitrile/methanol with 1 μg/mL of a selected internal standard lipid added. After filtration through a 0.45 micron 96-well filtering plate, the filtrates were analyzed by LC-MS (Thermo Fisher's Vanquish UHPLC-LTQ XL linear ion trap Mass Spectrometer); Waters XBridge BEH Shield RP18 2.5 micron (2.1×100 mm) column with its matching guard column. Mobile phase A was 0.1% formic acid in water, and mobile phase B was 0.1% formic acid in 1:1 (v/v) acetonitrile/methanol. Flow rate was 0.5 ml/min. Elution gradient was: Time 0-1 min: 10% B; 1-6 min: 10%-95% B; 6-8.5 min: 95% B; 8.5-9 min: 95%-10% B; 9-10 min: 10% B. Mass spectrometry was in positive scanning mode from 600-1100 m/z. The peak of the molecular ion of the lipids was integrated in the extracted ion chromatography (XIC) using Xcalibur software (Thermo Fisher). The relative peak area compared to T=0, after normalization by the peak area of the internal standard, was used as the percentage of the lipid remaining at each time point. T1/2 values were calculated using the first-order decay model.

Row | In vivo degradability (ng/tissue) at 48 h 0.03 mpk ([1]; Table 2, 0.03 mpk) | In vivo degradability (ng/tissue) at 48 h 0.1 mpk [1] | Plasma half life % remaining after 2 h (Mouse plasma stability; Table 2, 37° C.) | In vivo degradability (ng/tissue) at 48 h 0.03 mpk ([1]; Table 1, 0.03 mpk) | In vivo degradability (ng tissue) at 48 h 0.1 mpk [1] | Plasma half life % remaining after 2 h (Mouse plasma stability; Table 1, 37° C.) | SMILES
1 | <340 ng/tissue | <340 ng/tissue | 100% | – | – | – | CCCCC(C)(C)CC(=O)OCC(C)(COC(=O)CCN(CCC(=O)OCC(C)(COC(=O)CC(C)(C)CCCC)COC(=O)CC(C)(C)CCCC)C(=O)SCCCN(C)C)COC(=O)CC(C)(C)CCCC [LIPID 23]
2 | <340 ng/tissue | 847 ng/tissue | 100% | <340 ng/tissue | 847 ng tissue | – | CCCCCC(C)(C)C(=O)OCC(COC(=O)C(C)(C)CCCCC)OC(=O)CCCN(CCCC(=O)OC(COC(=O)C(C)(C)CCCCC)COC(=O)C(C)(C)CCCCC)C(=O)SCCCN(C)C [LIPID 19, ((4,4′-((((3-(Dimethylamino)propyl)thio)carbonyl)-azanediyl)bis(butanoyl))bis(oxy))bis(propane-2,1,3-triyl) tetrakis(2,2-dimethylheptanoate)]
3 | <340 ng/tissue | <340 ng/tissue | 100% | – | – | – | CC1CCC(CC(=O)OCC(C)(COC(=O)CCN(CCC(=O)OCC(C)(COC(=O)CC2CCC(C)CC2)COC(=O)CC2CCC(C)CC2)C(=O)SCCCN(C)C)COC(=O)CC2CCC(C)CC2)CC1 (centres unmarked) [LIPID 21]
4 | <340 ng/tissue | 639 ng/tissue | 100% | <340 ng/tissue | 639 ng tissue | 100% | CCCCCCC(C)C(=O)OCC(COC(=O)C(C)CCCCCC)OC(=O)CCCN(CCCC(=O)OC(COC(=O)C(C)CCCCCC)COC(=O)C(C)CCCCCC)C(=O)SCCCN(C)C (centres unmarked) [LIPID 18, ((4,4′-((((3-(Dimethylamino)propyl)thio)carbonyl)-azanediyl)bis(butanoyl))bis(oxy))bis(propane-2,1,3-triyl) tetrakis(2-methyloctanoate)]
5 | BLOQ | BLOQ | 57% | BLOQ | BLOQ | 57% | CN(C)CCCSC(=O)N(CCCCCC(=O)OC(COC(=O)CCC1CCCCC1)COC(=O)CCC1CCCCC1)CCCCCC(=O)OC(COC(=O)CCC1CCCCC1)COC(=O)CCC1CCCCC1 [LIPID 12, ((6,6′-((((3 (dimethylamino)propyl)thio)carbonyl)azanediyl)bis(hexanoyl))bis(oxy))bis(propane-2,1,3-triyl) tetrakis(3-cyclohexylpropanoate)]
6 | <340 ng/tissue | <340 ng/tissue | 100% | – | – | – | CC1CCC(CCC(=O)OCC(C)(COC(=O)CCC2CCC(C)CC2)COC(=O)CCN(CCC(=O)OCC(C)(COC(=O)CCC2CCC(C)CC2)COC(=O)CCC2CCC(C)CC2)C(=O)SCCCN(C)C)CC1 (centres unmarked) [LIPID 20]
7 | BLOQ | BLOQ | 100% | – | – | – | CN(C)CCCSC(=O)N(CCCC(=O)OC(COC(=O)C1CC2CCCCC2C1)COC(=O)C1CC2CCCCC2C1)CCCC(=O)OC(COC(=O)C1CC2CCCCC2C1)COC(=O)C1CC2CCCCC2C1 (centres unmarked) [LIPID 28]
8 | BLOQ | BLOQ | 100% | – | – | – | CCCCCCCCC(=O)OCC(COC(=O)CCCCCCCC)COC(=O)CCCN(CCCC(=O)OCC(COC(=O)CCCCCCCC)COC(=O)CCCCCCCC)C(=O)SCCCN(C)C [LIPID 25, ((4,4′-((((3-(Dimethylamino)propyl)thio)carbonyl)azanediyl)bis(butanoyl))bis(oxy))bis(methylene))bis(propane-2,1,3-triyl) tetranonanoate]
9 | BLOQ | BLOQ | 100% | – | – | – | CCCCCCCCC(=O)OCC(COC(=O)CCCCCCCC)COC(=O)CCN(CCC(=O)OCC(COC(=O)CCCCCCCC)COC(=O)CCCCCCCC)C(=O)SCCN(C)C [LIPID 26, ((3,3′-((((2-(Dimethylamino)ethyl)thio)carbonyl)azanediyl)bis(propanoyl))bis(oxy))bis(methylene))bis(propane-2,1,3-triyl) tetranonanoate]
10 | BLOQ | BLOQ | 14% | BLOQ | BLOQ | 14% | CCCCCCCCC(=O)OCC(COC(=O)CCCCCCCC)OC(=O)CCCN(CCCC(=O)OC(COC(=O)CCCCCCCC)COC(=O)CCCCCCCC)C(=O)SCCCN(C)C [LIPID 1, ((4,4′-((((3-(Dimethylamino)propyl)thio)carbonyl)azanediyl)bis(butanoyl))bis(oxy))bis(propane-2,1,3-triyl) tetranonanoate]
11 | BLOQ | BLOQ | 36% | BLOQ | BLOQ | 36% | CN(C)CCCSC(=O)N(CCCC(=O)OC(COC(=O)CCC1CCCCC1)COC(=O)CCC1CCCCC1)CCCC(=O)OC(COC(=O)CCC1CCCCC1)COC(=O)CCC1CCCCC1 [LIPID 10, ((4,4′-((((3-(Dimethylamino)propyl)thio)carbonyl)azanediyl)bis(butanoyl))bis(oxy))bis(propane-2,1,3-triyl) tetrakis(3-cyclohexylpropanoate)]
12 | <340 ng/tissue | <340 ng/tissue | 100% | <340 ng/tissue | <340 ng tissue | 256% | CC1CCC(CC(=O)OCC(COC(=O)CC2CCC(C)CC2)OC(=O)CCCN(CCCC(=O)OC(COC(=O)CC2CCC(C)CC2)COC(=O)CC2CCC(C)CC2)C(=O)SCCCN(C)C)CC1 (centres unmarked) [LIPID 15, ((4,4′-((((3-(dimethylamino)propyl)thio)carbonyl)-azanediyl)bis(butanoyl))bis(oxy))bis(propane-2,1,3-triyl) tetrakis(2-(4-methylcyclohexyl)acetate)]
13 | <340 ng/tissue | <340 ng/tissue | 100% | – | – | – | CCC1CCC(C(=O)OCC(C)(COC(=O)CCN(CCC(=O)OCC(C)(COC(=O)C2CCC(CC)CC2)COC(=O)C2CCC(CC)CC2)C(=O)SCCCN(C)C)COC(=O)C2CCC(CC)CC2)CC1 (centres unmarked) [LIPID 22, ((3,3′-((((3-(Dimethylamino)propyl)thio)carbonyl)azanediyl)bis(propanoyl))bis(oxy))bis(methylene)bis(2-methylpropane-2,1,3-triyl) tetrakis(2-(4-ethylcyclohexyl)acetate)]
14 | <340 ng/tissue | <340 ng/tissue | 74% | <340 ng/tissue | <340 ng tissue | 74% | CCCCCCCCC(=O)OCC(COC(=O)CCCCCCCC)OC(=O)CCN(CCC(=O)OC(COC(=O)CCCCCCCC)COC(=O)CCCCCCCC)C(=O)SCCCN(C)C [LIPID 13]
15 | BLOQ | BLOQ | 100% | – | – | – | CC1CCC(CCC(=O)OCC(COC(=O)CCC2CCC(C)CC2)COC(=O)CCN(CCC(=O)OCC(COC(=O)CCC2CCC(C)CC2)COC(=O)CCC2CCC(C)CC2)C(=O)SCCCN(C)C)CC1 (centres unmarked) [LIPID 27]
16 | BLOQ | BLOQ | 81% | BLOQ | BLOQ | 81% | CCCCCCCCC(=O)OCC(COC(=O)CCCCCCCC)OC(=O)CN(CC(=O)OC(COC(=O)CCCCCCCC)COC(=O)CCCCCCCC)C(=O)SCCCN(C)C [LIPID 8, ((2,2′-((((3-(Dimethylamino)propyl)thio)carbonyl)azanediyl)bis(acetyl))bis(oxy))bis(propane-2,1,3-triyl) tetranonanoate]
